Measurements as given in patent US20150005320A9, “COMPOUNDS FOR INFLAMMATION AND IMMUNE-RELATED USES” (Synta Pharmaceuticals Corp., priority 2003, published 2015).

How the values were obtained:
CRAC ion channel [1] = target: CRAC ion channel (Rattus norvegicus, UniProt Q5M848); test: Patch clamp inhibition of ICRAC current in RBL cells; assay type: cell-based; conditions: whole-cell patch clamp, read-out: IC50 (concentration which inhibits 50% of the ICRAC current)
Experimental: In general, a whole cell patch clamp method was used to examine the effects of a compound of the invention on a channel that mediates Icrac. In such experiments, a baseline measurement was established for a patched cell. Then a compound to be tested was perfused (or puffed) to cells in the external solution and the effect of the compound on Icrac was measured. A compound that modulates Icrac (e.g., inhibits) is a compound that is useful in the invention for modulating CRAC ion channel activity.
Rat basophilic leukemia cells (RBL-2H3) were grown in DMEM media supplemented with 10% fetal bovine serum in an atmosphere of 95% air/5% CO2. Cells were seeded on glass coverslips 1-3 days before use.
Membrane currents of individual cells were recorded using the whole-cell configuration of the patch clamp technique with an EPC10 (HEKA Electronik, Lambrecht, Germany). Electrodes (2-5 MO in resistance) were fashioned from borosilicate glass capillary tubes (Sutter Instruments, Novato, Ca). The recordings were done at room temperature.
Cs-Glutamate 120 mM; CsCl 20 mM; CsBAPTA 10 mM; CsHEPES 10 mM; NaCl 8 mM; MgCl2 1 mM; IP3 0.02 mM; pH=7.4 adjusted with CsOH. (Shielded from light and kept on ice before experiment)
NaCl 138 mM; NaHEPES, 10 mM; CsCl 10 mM; CaCl2 10 mM; Glucose 5.5 mM; KC1-5.4 mM; KH2PO4 0.4 mM; Na2HPO4H2 0.3 mM at pH=7.4 adjusted with NaOH.
Each compound was diluted from a 10 mM stock in series using DMSO (10 μM, 3.2 μM, […], 316 nM, 100 nM, 32 nM). The final DMSO concentration was always kept at 0.1%.
ICRAC currents were monitored every 2 seconds using a 50 msec protocol, where the voltage was ramped from −100 mV to +100 mV. The membrane potential was held at 0 mV between the test ramps. In a typical experiment the peak inward currents would develop within 50-100 seconds. […]
The ICRAC current level was determined by measuring the inward current amplitude at −80 mV of the voltage ramp in an off-line analysis using MATLAB. The ICRAC current inhibition for each concentration was calculated using peak amplitude in the beginning of the experiment from the same cell. […]

TNF-α production = TNF-α production upon PMA/ionomycin stimulation in whole blood from dosed cynomolgus monkeys; assay type: in vivo; conditions: cynomolgus monkey, IV 5 mg/kg, 4 hours after dosing, FIG. 4
Experimental: (§1) 3 male non-naïve cynomolgus monkeys were fasted overnight prior to and for four (4) hours following each dose. Each monkey was given a single intravenous dose of the appropriate test compound followed by a 1 mL rinse of saline to flush the catheter. The dose was infused over one hour using calibrated syringe pumps. Following a one week washout, the same three monkeys were given a single oral gavage dose of the appropriate test compound dose formulation followed by a 10 mL flush with tap water. Following a second one week washout, the same three monkeys received a second oral dose of the appropriate test compound dose formulation followed by a 10 mL flush with tap water. Following a third one week washout, the same three monkeys received a third oral dose of the appropriate test compound dose formulation followed by a 10 mL flush with tap water. Prior to and at 1, 2, and 4 hours following each dose (measured from the start of dosing for IV doses), blood samples (3 mL/sample for Group 1 and 2 mL/sample for Groups 2 and 3) were drawn into tubes containing sodium heparin and stored at room temperature, and the concentration of the test compounds in each sample was measured. CsA was included as a positive control.

CRAC ion channel [2] = test: Patch clamp inhibition of ICRAC current in primary T cells; assay type: cell-based; conditions: primary human T cells, FIG. 1
Experimental: Primary T cells were obtained from human whole blood samples by adding 100 μL of RosetteSep® human T cell enrichment cocktail to 2 mL of whole blood. The mixture was incubated for 20 minutes at room temperature, then diluted with an equal volume of PBS containing 2% FBS. The mixture was layered on top of RosetteSep® DM-L density medium and then centrifuged for 20 minutes at 1200 g at room temperature.
The enriched T cells were recovered from the plasma/density medium interface, then washed with PBS containing 2% FBS twice, and used in patch clamp experiments following the procedure described for RBL cells.

IL-2 production [3] = test: IL-2 production upon PMA/ionomycin stimulation in whole blood from dosed cynomolgus monkeys; assay type: in vivo; conditions: cynomolgus monkey, IV 5 mg/kg, 4 hours after dosing, FIG. 3
Experimental: as §1

IL-2 production [4] = test: Inhibition of IL-2 production in PHA-activated Jurkat cells (ELISA); assay type: cell-based; conditions: Homo sapiens, 20 h
Experimental: Jurkat cells were placed in a 96 well plate (0.5 million cells per well in 1% FBS medium) then test compounds of this invention were added at different concentrations. After 10 minutes, the cells were activated with PHA (final concentration 2.5 μg/mL) and incubated for 20 hours at 37° C. under CO2. The final volume was 200 μL. Following incubation, the cells were centrifuged and the supernatants collected and stored at −70° C. prior to assaying for IL-2 production. A commercial ELISA kit (IL-2 Eli-pair, Diaclone Research, Besancon, France) was used to detect production of IL-2, from which dose response curves were obtained. The IC50 value was calculated as the concentration at which 50% of maximum IL-2 production after stimulation was inhibited versus a non-stimulation control.

Sequence of CRAC ion channel (Rattus norvegicus, UniProt Q5M848) (Q5M848 whole entry, the tested form may be a part): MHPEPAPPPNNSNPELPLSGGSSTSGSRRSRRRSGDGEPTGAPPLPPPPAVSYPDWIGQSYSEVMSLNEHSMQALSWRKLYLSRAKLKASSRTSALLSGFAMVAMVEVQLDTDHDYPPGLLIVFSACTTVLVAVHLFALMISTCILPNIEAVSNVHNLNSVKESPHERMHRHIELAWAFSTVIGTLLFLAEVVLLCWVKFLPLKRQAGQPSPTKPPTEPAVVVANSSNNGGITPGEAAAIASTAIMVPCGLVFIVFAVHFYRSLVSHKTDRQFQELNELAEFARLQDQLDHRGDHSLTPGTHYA
Sequence of CRAC ion channel (Rattus norvegicus, UniProt Q5M848) (P84903 23-685, further chain): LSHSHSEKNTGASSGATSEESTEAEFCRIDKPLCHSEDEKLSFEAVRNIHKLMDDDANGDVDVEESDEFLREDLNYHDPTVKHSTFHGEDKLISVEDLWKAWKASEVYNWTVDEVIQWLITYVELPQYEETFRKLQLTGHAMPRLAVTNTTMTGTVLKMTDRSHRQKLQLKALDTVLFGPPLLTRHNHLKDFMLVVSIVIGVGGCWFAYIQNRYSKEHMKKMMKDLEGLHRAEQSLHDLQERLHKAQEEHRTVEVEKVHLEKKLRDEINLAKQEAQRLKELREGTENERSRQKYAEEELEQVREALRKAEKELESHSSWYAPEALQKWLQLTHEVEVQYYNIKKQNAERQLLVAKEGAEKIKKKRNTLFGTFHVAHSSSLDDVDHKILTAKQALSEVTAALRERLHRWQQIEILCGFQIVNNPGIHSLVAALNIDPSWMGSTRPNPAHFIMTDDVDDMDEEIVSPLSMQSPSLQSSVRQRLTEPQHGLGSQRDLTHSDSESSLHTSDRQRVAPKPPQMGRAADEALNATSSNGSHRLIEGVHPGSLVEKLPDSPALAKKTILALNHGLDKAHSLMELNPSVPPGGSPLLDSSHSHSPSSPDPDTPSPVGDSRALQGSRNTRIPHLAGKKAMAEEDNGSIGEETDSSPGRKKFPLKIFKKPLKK

In the case of Cc1nnsc1C(=O)Nc1ccc(-c2cc(C(F)(F)F)ccc2Cl)cc1 [Compound 27, 4-Methyl-[1,2,3]thiadiazole-5-carboxylic acid (2′-chloro-5′-trifluoromethyl-biphenyl-4-yl)-amide], the IC50 (CRAC ion channel [1]) is reported as 0.4 µM.
For COc1ccc(OC)c(-c2ccc(NC(=O)c3cccc(F)c3F)cc2)c1 [Compound 31, N-(2′,5′-Dimethoxy-biphenyl-4-yl)-2,3-difluoro-benzamide], the “TNF-α production after IV infusion” value (TNF-α production) was “significantly inhibit”, the “inhibition of ICRAC current in primary T cells compared with RBL cells” value (CRAC ion channel [2]) was “inhibits ICRAC current equally well in primary T cells as in RBL cells” and the “IL-2 production after IV infusion” value (IL-2 production [3]) was “significantly inhibit”. The IC50 (CRAC ion channel [1]) was 0.1 µM.
In the case of COc1ccc(C)cc1-c1ccc(NC(=O)c2cccc(F)c2F)cc1 [Compound 46, N-(2′-methoxy-5′-methyl-biphenyl-4-yl)-2,3-difluorobenzamide], the IC50 (IL-2 production [4]; bins in nM) is reported as < 100 nM.
Compound Cc1nocc1C(=O)Nc1ccc(-c2cc(C(F)(F)F)ccc2C(F)(F)F)cc1 [Compound 48, 3-methylisoxazole-4-carboxylic acid (2′,5′-bis-trifluoromethyl-biphenyl-4-yl)-amide] has an IC50 (IL-2 production [4]; bins in nM) of 100 to 500 nM.
Work on O=C(Nc1ccc(-c2cc(C(F)(F)F)ccc2C(F)(F)F)cc1)c1ccnc2ccccc12 [Compound 57, quinoline-4-carboxylic acid (2′,5′-bis-trifluoromethyl-biphenyl-4-yl)-amide] yielded an IC50 (IL-2 production [4]; bin printed with mixed units nM and μM) of 500 to 1000 nM.
In the case of COc1ccc(Cl)cc1-c1ccc(NC(=O)c2cc(F)c(F)cc2F)cc1 [Compound 84, N-(2′-methoxy-5′-chloro-biphenyl-4-yl)-2,4,5-trifluorobenzamide], the IC50 (CRAC ion channel [1]) is reported as 0.3 µM.
